Test [1] deals with 5-LO. As to the kind of experiment: In vitro inhibition of 5-LO: Schultz-Dale reaction (ovalbumin-induced contraction of tracheal strips from actively sensitized guinea pigs). In kind it is tissue-based, guinea pig (male Hartley). Conditions: Cavia porcellus; sensitized guinea-pig tracheal strips; antigen (OA) 30 ng/ml; 30 min preincubation; indomethacin 5 μM, pyrilamine 10 μM. The procedure:
Male, Hartley strain guinea-pigs (200-250 g) were actively sensitized by three injections of ovalbumin (OA, 10 mg/kg). The OA was administered intraperitoneally on Days 1 and 3 and subcutaneously on Day 5. In vitro experiments were performed 21-25 days later.
On the day of the experiment, guinea pigs were killed by asphyxiation with CO2 and the tracheas removed, cleaned of surrounding connective tissue and cut into sprial strips. Each strip was divided in half for paired experiments. Tissues were placed in 10 ml jacketed tissue baths maintained at 37° C. and attached with cotton thread to Grass force-displacement transducers (FT03C). […] Tracheal strips were bathed in modified Krebs' solution of the following composition (millimolar) NaCl, 118.2; KCl, 4.6; CaCl2.2H2 O, 2.5; MgSO4.7H2 O, 1.2; NaHCO3, 24.8; KH2 PO4, 1.0; and dextrose, 10.0. The buffer contained indomethacin (5 μM) which potentiated the contractions of the cysteinyl leukotrienes (LT) by removing the influence of cyclooxygenase products. The tissue baths were aerated with 95% O2 :5% CO2. Tracheal strips were placed under a resting tension of 2 g, and the tissues were allowed a minimal stabilization period of 60 minutes before undergoing experimentation. Bath fluid was changed at 15 minute intervals during the stabilization period.
Concentration-response curves
Cumulative concentration-response curves were obtained from tracheal strips by increasing the agonist concentration in the organ bath by half-log increments while the previous concentration remained in contact with the tissues van Rossum, Arch, Int. Pharmacodymn Ther., 143, 299-330 (1963). Agonist concentration was increased after reaching the plateau of the contraction elicited by the preceeding concentration. One concentration-response curve was obtained from each tissue. To minimize variability between tissues, contractile responses were expressed as a percentage of the maximal response obtained with carbachol (10 μM), added to the bath at the end of the concentration-response curve. Initially, tissues were challenged with carbachol (10 μM) following the 60 minute stabilization period to insure tissue viability. After recording the maximal response to the initial carbachol challenge, the tissues were washed and re-equilibrated for 60 minutes before starting the experimental protocol.
Determination of EC50 and % Inhibition
To evaluate the effects of novel 5-lipoxygenase inhibitors in the Schultz-Dale reaction, each compound was incubated with the tissues 30 minutes before starting the curves. Vehicle (DMSO) was given to the paired control tissue. Pyrilamine (10 μM) was added to all baths at this time to block the actions of released histamine. Responses obtained at the antigen concentration of 30 ng/ml were recorded in the absence and presence of drug and percent inhibition was calculated for each pair of tissues. IC50 values were determined by linear regression.
LT or carbachol concentration-response curves were used to determine specificity of the agent as a 5-lipoxygenase inhibitor. In these experiments the test compound was incubated as described above. EC50 values, which represent the molar concentration of agonist required to induce 50% of maximal response, was determined by linear regression. Differences in EC50 values, in the presence and absence of test compound were analyzed by Student's t-test with P<0.05 regarded as significant.

The test system of test [2] is 5-LO. Put plainly: In vivo inhibition of OA-induced increase in tracheal pressure in passively sensitized guinea pigs, oral dosing. Details: species or system guinea pig (male Hartley). Conditions: 2 hr, OA challenge; for inhibition in vivo at 30 mg/kg: Cavia porcellus, read-out: Inhibition of 5-LO In Vivo Percent Inhibition at 30 mg/kg, po, 2 hr. The protocol: Male Hartley guinea pigs (350-500 g) were passively sensitized against ovalbumin by i.p. administration of 0.3 ml of antiserum 2 days preceeding the experiment. Hyperimmune serum was prepared from actively sensitizing male guinea pigs conditioned with 2 mg of ovalbumin in 50% Complete Freund's Adjuvant i.p. on days 1 and 5. On day 21, the animals were bled and the serum collected and stored at -20° C. On the day of the experiment the passively sensitized guinea pigs were anesthetized with 35 to 40 mg/kg of pentobarbital sodium given i.p. The right jugular vein was cannulated with Tygon microbore tubing (o.d.=03) connected to a syringe for administration of selected drugs. Blood pressure was measured with a Statham pressure transducer connected to a Tygon catheter placed in the left carotid artery. The trachea was cannulated and each animal was ventilated with room air by means of a Harvard rodent respirator set to deliver a tidal volume of 1 ml/100 g body weight with a rate of 60 breaths/minute. Succinylcholine (5 mg/kg) was given i.v. to suppress spontaneous respiration. Intratracheal pressure, an index of total pulmonary resistance, was measured with a Statham pressure transducer connected to a T-tube on the tracheal cannula. […] Body temperature was maintained within normal limits by means of a Deltaphase isothermal pad. Prior to surgery, test compound or vehicle (PEG 400) was administered to each guinea pig by oral gavage and OA challenge was at designated times following oral dosing. The animals were pretreated i.v. with pyrilamine (5 mg/kg), propranolol (1 mg/kg) and indomethacin (10 mg/kg) 5 minutes prior to the OA challenge. OA-induced increase in tracheal pressure was expressed as a percentage of the maximal pressure obtained by clamping the trachea with a hemistat. To determine the effect of each drug, a % inhibition value was calculated from the vehicle and drug treated animals at each concentration tested.

Take `C#CCOc1ccccc1C=CCN(O)C(N)=O` [Example 7, N-hydroxy-N-[3-[2-(2-propynyloxy)phenyl]prop-2-enyl]urea]: in the test with 5-LO [1], the IC50 (usually the concentration needed to halve the response being measured) was found to be 2400 nM. In the test with 5-LO [2], the inhibition in vivo at 30 mg/kg is 93%.
With `C=CCCSc1ccccc1C=CCN(O)C(N)=O` [Example 4, N-hydroxy-N-[3-[2-(3-butenylthio)phenyl]-prop-2-enyl]urea], the IC50 in the test on 5-LO [1] turned out to be 390 nM. Besides, the inhibition in vivo at 30 mg/kg in the test on 5-LO [2] was found to be 81%.
For `CC#CCSc1ccccc1C=CCN(O)C(N)=O` [Example 3, N-hydroxy-N-[3-[2-(2-butynylthio)phenyl]prop-2-enyl]urea], the IC50 in the test with 5-LO [1] is 600 nM. Further, the “Inhibition of 5-LO In Vivo Percent Inhibition (dose of 10 mg/kg)” value in the test on 5-LO [2] (10 mg/kg (footnote a)) was found to be 30%.
On to `C#CCSc1ccccc1C=C(C)CN(O)C(N)=O` [Example 8, N-hydroxy-N-[2-methyl-3-[2-(2-propynylthio)phenyl]prop-2-enyl]urea], for which the IC50 in the test on 5-LO [1] was 1800 nM. Also, the inhibition in vivo at 30 mg/kg in the test with 5-LO [2] amounted to 51%.
Turning to `C#CCCSc1ccccc1C=CCN(O)C(N)=O` [Example 2, N-hydroxy-N-[3-[2-(3-butynylthio)phenyl]prop-2-enyl]urea], in the test with 5-LO [1], the IC50 was determined as 1000 nM. In addition, the inhibition in vivo at 30 mg/kg with 5-LO [2] worked out at 50%.
On to `C#CCSc1ccccc1C=CCN(O)C(N)=O` [Example 1, N-hydroxy-N-[3-[2-(2-propynylthio)phenyl]prop-2-enyl]urea], for which the IC50 in the test on 5-LO [1] was determined as 2100 nM. In addition, the inhibition in vivo at 30 mg/kg in the test on 5-LO [2] is 78%.
For `NC(=O)N(O)CC=Cc1ccccc1SCC1CCCCC1` [Example 5, N-hydroxy-N-[3-[2-(cyclohexylmethylthio)phenyl]-prop-2-enyl]urea], the IC50 in the test on 5-LO [1] was 1200 nM. For the same compound, the inhibition in vivo at 30 mg/kg in the test on 5-LO [2] is 76%.
For `C#CCSc1c(F)cccc1C=CCN(O)C(N)=O` [Example 9, N-hydroxy-N-[3-[3-fluoro-2-(2-propynylthio)phenyl]prop-2-enyl]urea] the same measures were 1000 nM and 93%.
For the compound `NC(=O)N(O)CC=Cc1ccccc1SCC1CC1` [Example 6, N-hydroxy-N-[3-[2-(cyclopropylmethylthio)phenyl]-prop-2-enyl]urea], the IC50 in the test with 5-LO [1] stood at 620 nM. The inhibition in vivo at 30 mg/kg in the test on 5-LO [2] was 75%.

These data come from patent US5130485A, “N-hydroxy-N-(3-(2-substituted phenyl)prop-2-enyl)ureas and thioureas useful as 5-lipoxygenase inhibiting agents” (Eli Lilly and Company, priority 1991, dated 1992).
